Measured values as given in ChEMBL document CHEMBL3352251, “Structural factors affecting affinity of cytotoxic oxathiole-fused chalcones toward tubulin” (Eur J Med Chem, 2015).
pIC50: −log10 of the molar value. The source made the active and inactive calls. The calls are words filed in the database; no cut-off is given here.

Experiments:
HeLa = experiment: cells; details: Homo sapiens, 72 h
Description: Cytotoxicity against human HeLa cells after 72 hrs by MTT assay

A549 [1] = experiment: cells; details: Homo sapiens, A549, 72 h
Description: Cytotoxicity against human A549 cells after 72 hrs by MTT assay

cells = details: Homo sapiens, HCT-116, 72 h
A549 [2] = experiment: Induction of apoptosis in human A549 cells at 1 uM after 24 to 72 hrs by propidium iodide staining based flow cytometry; format: functional, cell-based
Tubulin [3] = experiment: Inhibition of colchicine binding to tubulin (unknown origin); format: protein-complex assay, Homo sapiens
Tubulin [4] = experiment: Inhibition of tubulin (unknown origin) polymerization after 1 hr by multiplate reader method; format: protein-complex assay, Homo sapiens
A549 [5] = experiment: Induction of growth arrest in human A549 cells assessed as MPM2 levels level at 1 uM after 6 to 48 hrs by immunofluorescence microscopy; format: functional, cell-based
Tubulin (Homo sapiens) = Tubulin (Homo sapiens) (UniProt P68371+Q9H4B7+P0DPH7+P68366+Q13509+Q71U36+P04350+Q3ZCM7+P07437+P68363+Q9BQE3+Q6PEY2+Q13885+Q9BVA1+Q9BUF5); experiment: Inhibition of tubulin in human A549 cells assessed as disruption of microtubules at 1 uM incubated for 6 hrs by immunofluorescence staining; format: cell-based
A549 [6] = experiment: Induction of cell cycle arrest in human A549 cells assessed as accumulation at G2/M phase accumulation at 1 uM after 48 hrs by propidium iodide staining based flow cytometry; format: functional
A549 [7] = experiment: Induction of growth arrest in human A549 cells assessed as mitotic chromosomes level at 1 uM after 6 to 48 hrs by fluorescence microscopy; format: functional, cell-based
A549 [8] = experiment: Increase in polyploid cells in human A549 cells at 1 uM after 24 to 72 hrs by propidium iodide staining based flow cytometry; format: functional, cell-based

Structure (SMILES) | pIC50 (HeLa) | pIC50 (A549 [1]) | pIC50 (cells) | further results
COc1cc2c(cc1C(=O)/C=C/c1ccccc1)SCO2 | 5.72 | 5.39 | 5.65 | 
COc1cc(/C=C/C(=O)c2cc3c(cc2OCC(=O)O)OCS3)cc(OC)c1OC | < 5.00 | < 5.00 | < 5.00 | 
COc1ccc(/C=C/C(=O)c2c(O)ccc3c2SCO3)cc1F | 5.16 | 5.03 | 5.18 | 
COc1ccc(/C=C/C(=O)c2cc3c(cc2OCCN2CCOCC2)OCS3)cc1OC | 5.43 | 5.42 | 5.64 | 
COc1ccc(/C=C/C(=O)c2cc3c(cc2OCC(=O)O)OCS3)cc1 | < 5.00 | < 5.00 | < 5.00 | 
O=C(/C=C/c1ccc(Br)cc1)c1c(O)ccc2c1SCO2 | 5.58 | 5.41 | 5.54 | 
COc1cc2c(cc1C(=O)/C=C/c1ccc(O)cc1)SCO2 | 5.49 | 5.04 | 5.07 | 
COc1ccc(/C=C/C(=O)c2cc3c(cc2OCCN2CCOCC2)OCS3)cc1F | 6.15 | 5.37 | 5.91 | 
COc1cc2c(cc1C(=O)/C=C/c1ccc(OCC(=O)O)cc1)SCO2 | < 5.00 | < 5.00 | < 5.00 | 
COc1ccc(/C=C/C(=O)c2c(O)ccc3c2SCO3)cc1OC | 5.34 | 5.25 | 5.55 | 
COc1cc2c(cc1C(=O)/C=C/c1cccc(OC)c1OC)SCO2 | 5.40 | 5.30 | 5.50 | 
O=C(/C=C/c1ccccc1)c1c(O)ccc2c1SCO2 | 5.56 | 5.44 | 5.66 | 
COc1cc(OC)c(/C=C/C(=O)c2cc3c(cc2OCC(=O)O)OCS3)c(OC)c1 | < 5.00 | < 5.00 | < 5.00 | 
COc1ccc(/C=C/C(=O)c2cc3c(cc2OC)SCO3)cc1 |  |  |  | pIC50 (Tubulin [3]): 6.97; pIC50 (Tubulin [4]): 5.38
COc1ccc(/C=C\c2cc(OC)c(OC)c(OC)c2)cc1O [COMBRETASTATIN A4] | 8.52 |  | 8.40 | 
COc1ccc(/C=C/C(=O)c2c(O)ccc3c2SCO3)cc1 | 5.11 | 4.97 | 5.16 | 
CC(=O)O[C@H]1C(=O)[C@@]2(C)[C@H]([C@H](OC(=O)c3ccccc3)[C@]3(O)C[C@H](OC(=O)[C@H](O)[C@@H](NC(=O)c4ccccc4)c4ccccc4)C(C)=C1C3(C)C)[C@]1(OC(C)=O)CO[C@@H]1C[C@@H]2O [PACLITAXEL] |  |  | 8.40 | 

Now from value to compound, other results behind:

pIC50 (HeLa) | pIC50 (A549 [1]) | pIC50 (cells) | Structure (SMILES) | further results
 | 8.05 |  | CCCOc1cc2c(cc1C(=O)/C=C/c1ccc(OC)c(O)c1)OCS2 | 
6.96 | 6.45 | 6.56 | COc1ccc(/C=C/C(=O)c2cc3c(cc2OC)OCS3)cc1 | Activity (A549 [2]): Active; pIC50 (Tubulin [3]): 6.31; pIC50 (Tubulin [4]): 5.24; Activity (A549 [5]): Active; inhibition (Tubulin (Homo sapiens)): Active; Activity (A549 [6]): Active; Activity (A549 [7]): Active; Activity (A549 [8]): Active
5.63 | 5.62 | 5.84 | COc1cc(/C=C/C(=O)c2cc3c(cc2OCCN2CCOCC2)OCS3)cc(OC)c1OC | 
6.95 | 6.49 | 6.68 | COc1ccc(/C=C/C(=O)c2cc3c(cc2OC)OCS3)cc1F | 
6.25 | 5.92 | 6.13 | COc1ccc(/C=C/C(=O)c2cc3c(cc2OC)OCS3)cc1OC | 
5.81 | 5.76 | 6.01 | O=C(/C=C/c1ccc(Cl)cc1Cl)c1cc2c(cc1OCCN1CCOCC1)OCS2 | 
5.84 | 5.69 | 5.93 | COc1cc2c(cc1C(=O)/C=C/c1cccc(Cl)c1)SCO2 | 
 | 7.66 |  | COc1ccc(/C=C/C(=O)c2cc3c(cc2OC)SCO3)cc1O | 
6.81 | 6.91 | 7.16 | COc1cccc2c1C(=O)c1c(O)c3c(c(O)c1C2=O)C[C@@](O)(C(=O)CO)C[C@@H]3O[C@H]1C[C@H](N)[C@H](O)[C@H](C)O1 [DOXORUBICIN] | 
6.82 | 6.51 | 6.45 | COc1cc(OC)c(/C=C/C(=O)c2cc3c(cc2OC)OCS3)c(OC)c1 | 
5.39 | 5.46 | 5.65 | COc1cc2c(cc1C(=O)/C=C/c1cc(OC)c(OC)c(OC)c1)SCO2 | 
5.62 | 5.57 | 5.84 | COc1ccc(OC)c(/C=C/C(=O)c2cc3c(cc2OCCN2CCOCC2)OCS3)c1 | 
5.63 | 5.51 | 5.67 | COc1cc2c(cc1C(=O)/C=C/c1ccc(Br)cc1)SCO2 | 
8.30 | 7.92 | 7.92 | CCCOc1cc2c(cc1C(=O)/C=C/c1ccc(OC)c(O)c1)SCO2 | 
5.70 | 5.58 | 5.88 | O=C(/C=C/c1cccc(Cl)c1)c1c(O)ccc2c1SCO2 | 
5.82 | 5.69 | 5.83 | CN(C)CCOc1ccc(/C=C/C(=O)c2c(O)ccc3c2SCO3)cc1 | 
5.39 | 5.46 | 5.68 | COc1cc2c(cc1C(=O)/C=C/c1cc(Br)c(OC)c(OC)c1)SCO2 | 
5.75 | 5.52 | 5.68 | COc1cc2c(cc1C(=O)/C=C/c1ccc(Cl)cc1)SCO2 | 
5.71 | 5.47 | 5.60 | COc1cc2c(cc1C(=O)/C=C/c1ccc(CCN(C)C)cc1)SCO2 | 
5.51 | 5.51 | 5.78 | O=C(/C=C/c1ccccc1Cl)c1c(O)ccc2c1SCO2 | 
